A short description of data set [1]: Clearance in cynomolgus monkey at 0.5 mg/kg, iv measured up to 24 hrs by LC-MS/MS analysis. Type of data set: ADME, organism-based, Macaca fascicularis. To be noted: in vivo.
For data set [2], the target named is T1, Cytochrome P450 2B6 (Homo sapiens, UniProt P20813).
T1 sequence (P20813 whole entry): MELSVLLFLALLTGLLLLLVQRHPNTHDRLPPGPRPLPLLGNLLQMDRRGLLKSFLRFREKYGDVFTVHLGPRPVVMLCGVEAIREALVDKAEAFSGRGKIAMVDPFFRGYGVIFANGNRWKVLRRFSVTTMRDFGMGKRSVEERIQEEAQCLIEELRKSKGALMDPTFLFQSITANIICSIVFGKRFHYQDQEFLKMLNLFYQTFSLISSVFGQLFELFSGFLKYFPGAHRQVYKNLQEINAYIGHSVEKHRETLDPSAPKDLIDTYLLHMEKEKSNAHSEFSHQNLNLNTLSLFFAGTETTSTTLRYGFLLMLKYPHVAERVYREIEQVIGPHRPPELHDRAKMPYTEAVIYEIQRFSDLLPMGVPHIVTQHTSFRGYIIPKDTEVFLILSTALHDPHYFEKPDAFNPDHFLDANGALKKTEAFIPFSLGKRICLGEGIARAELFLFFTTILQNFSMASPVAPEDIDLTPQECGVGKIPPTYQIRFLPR
Description: Inhibition of CYP2B6 (unknown origin) measured after 30 mins. The class given is ADME.

Data set [3] has as its system 786-0. In words: Anti-tumor activity against human 786-0 cells xenografted in mouse model assessed as increase in soluble AXL level in plasma at 30 mg/kg, po once daily for 15 days. The class given is functional, organism-based. To be noted: time 15.0 day. (In xenograft studies the graft and the host belong to different species.)
Data set [4] in a line: Efflux ratio in human Caco-2 cells. Type of data set: ADME, cell-based.
Data set [5] addresses CYP2C19 (Homo sapiens, UniProt P33261). In words: Time dependent inhibition of CYP2C19 (unknown origin) at 30 uM measured after 30 mins relative to control. Type of data set: ADME. To be noted: read-out: TDI.
Data set [6] in a line: AUC (0 to 24 hrs) in human (healthy individuals) at 30 mg, single oral dose. The conditions noted are these: in vivo. Type of data set: ADME.
Data set [7] can be described thus: AUC (0 to 120 hrs) in human (healthy individuals) at 30 mg, single oral dose. Type of data set: ADME. To be noted: in vivo.
The test system of data set [8] is 786-0. Description: Anti-tumor activity against human 786-0 cells xenografted in mouse model assessed as tumor growth inhibition in presence of sunitinib at 30 mg/kg, po once daily for 15 days. The class given is functional, organism-based. The conditions noted are these: time 15.0 day.
Data set [9] is described as follows: Selectivity ratio, ratio of Ki for HPK1 (unknown origin) to Ki for AXL (unknown origin).
Data set [10] in a line: Selectivity ratio, ratio of Ki for TYRO3 (unknown origin) to Ki for AXL (unknown origin).
Data set [11] in a line: AUCinf in Sprague-Dawley rat at 2 mg/kg, po measured up to 8 hrs by LC-MS/MS analysis. To be noted: in vivo. Type of data set: ADME, organism-based.
Data set [12] has as its target CYP2C9 (Homo sapiens, UniProt P11712). In words: Time dependent inhibition of CYP2C9 (unknown origin) at 30 uM measured after 30 mins relative to control. The class given is ADME. To be noted: read-out: TDI.
Data set [13] deals with T2, Tyrosine-protein kinase receptor UFO (Homo sapiens, UniProt P30530).
T2 sequence (P30530 whole entry): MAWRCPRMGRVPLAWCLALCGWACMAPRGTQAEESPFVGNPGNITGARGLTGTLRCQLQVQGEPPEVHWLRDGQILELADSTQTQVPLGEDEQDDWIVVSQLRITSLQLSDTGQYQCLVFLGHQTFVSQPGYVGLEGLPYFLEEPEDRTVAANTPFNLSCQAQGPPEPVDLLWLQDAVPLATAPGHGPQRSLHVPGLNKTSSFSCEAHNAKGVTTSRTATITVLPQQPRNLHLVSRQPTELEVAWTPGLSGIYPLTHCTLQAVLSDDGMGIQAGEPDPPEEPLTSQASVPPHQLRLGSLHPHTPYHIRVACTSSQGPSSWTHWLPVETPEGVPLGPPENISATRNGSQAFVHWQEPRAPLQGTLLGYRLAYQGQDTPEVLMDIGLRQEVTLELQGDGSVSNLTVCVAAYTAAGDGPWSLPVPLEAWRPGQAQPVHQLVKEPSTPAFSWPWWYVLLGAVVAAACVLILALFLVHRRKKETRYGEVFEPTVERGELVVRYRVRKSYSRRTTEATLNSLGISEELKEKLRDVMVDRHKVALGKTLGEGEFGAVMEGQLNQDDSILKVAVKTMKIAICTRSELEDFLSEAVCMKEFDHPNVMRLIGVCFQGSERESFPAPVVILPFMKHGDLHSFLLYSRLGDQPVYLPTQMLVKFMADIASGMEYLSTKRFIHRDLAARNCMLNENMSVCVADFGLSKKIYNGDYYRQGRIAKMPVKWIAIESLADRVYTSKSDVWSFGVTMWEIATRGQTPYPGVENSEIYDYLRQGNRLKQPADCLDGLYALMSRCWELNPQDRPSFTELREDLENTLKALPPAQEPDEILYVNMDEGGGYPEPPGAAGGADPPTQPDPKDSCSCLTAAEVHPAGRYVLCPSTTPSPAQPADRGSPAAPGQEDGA
Description: Inhibition of human AXL measured after 150 mins by ATP-competitive HTRF based biochemical assay. Background: TR-FRET usually uses a lanthanide donor and a delayed reading to cut background.

Data set [14] is described as follows: Half life in human (healthy individuals) at 10 mg, single oral dose. Type of data set: ADME. To be noted: in vivo.
A short description of data set [15]: AUC (0 to 24 hrs) in human (healthy individuals) at 90 mg, single oral dose. To be noted: in vivo. The class given is ADME.
For data set [16], the target named is T3, CYP2B6 (Homo sapiens, UniProt P20813).
T3 sequence (P20813 whole entry): T1 sequence (P20813 whole entry)
In words: Time dependent inhibition of CYP2B6 (unknown origin) at 30 uM measured after 30 mins relative to control. To be noted: read-out: TDI. The class given is ADME.

A short description of data set [17]: Cmax in human (healthy individuals) at 270 mg, single oral dose measured uo to 120 hrs. Type of data set: ADME. To be noted: in vivo.
The nature of data set [18]: AUC (0 to 120 hrs) in human (healthy individuals) at 270 mg, single oral dose. Type of data set: ADME. To be noted: in vivo.
The target of data set [19] is T4, CYP2C8 (Homo sapiens, UniProt P10632).
T4 sequence (P10632 whole entry): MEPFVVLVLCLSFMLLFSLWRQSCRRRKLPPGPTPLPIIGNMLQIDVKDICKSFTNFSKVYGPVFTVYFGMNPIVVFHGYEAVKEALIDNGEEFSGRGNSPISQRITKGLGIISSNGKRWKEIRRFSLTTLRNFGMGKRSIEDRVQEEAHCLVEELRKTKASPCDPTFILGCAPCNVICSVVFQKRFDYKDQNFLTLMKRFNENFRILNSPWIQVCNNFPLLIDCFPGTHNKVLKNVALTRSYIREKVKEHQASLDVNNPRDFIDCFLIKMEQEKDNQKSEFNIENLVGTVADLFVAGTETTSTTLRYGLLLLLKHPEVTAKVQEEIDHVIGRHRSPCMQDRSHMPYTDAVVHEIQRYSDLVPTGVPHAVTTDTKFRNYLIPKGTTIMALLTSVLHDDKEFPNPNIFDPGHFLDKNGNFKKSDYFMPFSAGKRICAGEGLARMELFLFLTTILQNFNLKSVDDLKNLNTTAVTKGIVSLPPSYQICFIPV
In words: Time dependent inhibition of CYP2C8 (unknown origin) at 30 uM measured after 30 mins relative to control. To be noted: read-out: TDI. The class given is ADME.

A short description of data set [20]: Selectivity ratio, ratio of Ki for DRAK1 (unknown origin) to Ki for AXL (unknown origin).

The source made the active and inactive calls. No cut-off for these calls is given here.

CYP2C19, sequence (P33261 whole entry): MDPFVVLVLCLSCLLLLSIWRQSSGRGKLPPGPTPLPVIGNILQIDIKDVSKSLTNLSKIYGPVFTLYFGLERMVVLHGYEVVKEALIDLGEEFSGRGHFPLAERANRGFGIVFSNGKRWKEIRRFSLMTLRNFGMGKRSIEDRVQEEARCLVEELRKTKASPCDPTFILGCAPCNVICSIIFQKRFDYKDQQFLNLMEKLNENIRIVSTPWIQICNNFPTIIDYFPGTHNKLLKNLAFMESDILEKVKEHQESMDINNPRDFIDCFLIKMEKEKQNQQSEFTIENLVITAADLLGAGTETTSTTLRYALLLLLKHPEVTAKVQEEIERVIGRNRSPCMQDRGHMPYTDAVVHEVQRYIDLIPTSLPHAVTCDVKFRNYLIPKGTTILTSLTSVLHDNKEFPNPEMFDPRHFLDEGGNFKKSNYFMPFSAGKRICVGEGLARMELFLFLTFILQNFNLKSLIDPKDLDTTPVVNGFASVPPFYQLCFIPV
CYP2C9, sequence (P11712 whole entry): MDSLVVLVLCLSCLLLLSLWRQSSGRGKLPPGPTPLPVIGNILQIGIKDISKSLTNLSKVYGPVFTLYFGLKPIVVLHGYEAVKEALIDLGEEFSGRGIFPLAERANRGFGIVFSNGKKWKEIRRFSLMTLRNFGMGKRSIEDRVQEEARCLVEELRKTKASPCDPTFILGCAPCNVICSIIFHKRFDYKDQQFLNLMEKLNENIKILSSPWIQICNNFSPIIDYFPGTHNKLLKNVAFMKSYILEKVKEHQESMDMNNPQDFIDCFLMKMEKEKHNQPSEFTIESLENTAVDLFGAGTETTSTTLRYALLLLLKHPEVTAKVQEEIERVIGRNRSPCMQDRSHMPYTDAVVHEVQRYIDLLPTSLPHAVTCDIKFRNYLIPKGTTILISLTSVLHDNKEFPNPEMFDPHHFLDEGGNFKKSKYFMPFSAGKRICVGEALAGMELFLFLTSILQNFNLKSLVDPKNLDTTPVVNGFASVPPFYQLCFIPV

As for `Cc1cccnc1-c1ccc(-c2n[nH]c3ncc(-c4ccc5c(c4)CC[C@@H](N4C6COCC4C6)CC5)cc23)nc1`, the clearance in data set [1] was 12.7 mL/min/kg. For the same compound, the IC50 is more than 100000 nM in data set [2] and 1.8 nM in [13]. The result in data set [3] and in data set [8] was Active. The efflux ratio in data set [4] was 1.9. The inhibition at 0.5 h, 30 µM in data set [5] was 4.1%; in data set [12] it was 10%; in data set [16] it was 12%; in data set [19], 0%. Further, the AUC(0-t) amounted to 189 ng·h/mL in [6], 614 ng·h/mL in data set [7], 707 ng·h/mL in [15] and 7490 ng·h/mL in [18]. Also, the Ratio Ki in data set [9] was 280; in [10], 1400; in data set [20], 47. In [11], the AUC(0-inf) was found to be 1800 ng·h/mL. Also, in data set [14], the half-life is 70 h. The highest level in data set [17] (Cmax) was 153 ng/mL.

The clearance is the rate of elimination divided by the concentration. By IC50 is commonly meant the concentration needed to halve the response being measured. In general, efflux ratio refers to a quotient of directional permeabilities that is used to spot active efflux. The AUC(0-t) is exposure summed from dosing to a finite time, without extrapolation to infinity. By AUC(0-inf) is commonly meant total exposure, with the tail of the curve extrapolated. For orientation: half-life means the time in which the quantity being followed falls by half. A word on the Cmax: it is the peak of the concentration-time curve.

The values above are taken from ChEMBL document CHEMBL6134930, “Discovery of AB801, a Potent and Selective Inhibitor of AXL Receptor Tyrosine Kinase for Use in Cancer Therapy” (J Med Chem, 2025).
